Experiments:
cFos mRNA = cFos mRNA induction in cortex of wild-type mice (quantitative PCR); type: in vivo, C57BL/6J male mice; conditions: one hour after administration
Experimental: Compound administration and brain tissue collection.
Quantification of cFos mRNA induction. Tissue homogenization was performed using TissueLyser system for 96 well plates (Qiagen). First, frozen cortical samples were thawed, removed from RNAlater, and placed into TissueLyser tubes along with Buffer RLT containing 0.5% Reagent DX and one 5 mm TissueLyser metal bead. The TissueLyser tubes were loaded into a TissueLyser II tissue homogenizer for 3 rounds of homogenization, with each round lasting 5 minutes at 30 Hz bead-beating frequency. Total RNA was purified from the homogenate using RNeasy 96 Plus kit (Qiagen), RNA concentration and A260/A280 ratio were quantified via the Nanodrop (ThermoFisher), and all samples were normalized to 100 ng/μl concentration. RNA was reverse transcribed into cDNA using the Superscript III First-strand synthesis SuperMix Kit (ThermoFisher). For each sample, 6 μl of RNA (600 ng total) was mixed with 1 μL of Oligo dT and 1 μL of annealing buffer and heated to 65° C. for 5 minutes. Next, 10 μL of 2× First-Strand Reaction Mix and 2 μL of the Enzyme mix were added to achieve a total reaction volume of 20 μL. The samples were heated to 50° C. for 50 minutes then 85° C. for 5 minutes to complete cDNA synthesis.
Quantitative PCR was performed on the cDNA samples using Quantitect Multiplex RT-PCR kit (Qiagen) in a 384-well assay format. Each PCR well contained 2 μL of cDNA (60 ng total), 10 μL of RT-PCR mastermix, 1 μL of cFos FAM Taqman probe (Mm00487425_m1 (FAM) #4351368), 1 μL of GAPDH VIC Taqman probe (Mm99999915-g1 (VIC) #4448486), 0.2 μL of Multiplex RT mix and 5.8 μl of RNase-free water. On the ViiA7 Real-Time PCR system (ThermoFisher), the samples were heated to 95° C. for 15 minutes then cycled between 94° C. for 45 seconds and 60° C. for 45 seconds for 45 cycles. cFos Ct values were exported, normalized to GAPDH Ct values, and converted to relative fold change in expression using the delta-delta Ct relative quantification method. cFos fold changes between compound treatments and vehicle were analyzed by one-way ANOVA, followed by Tukey's post-hoc comparisons.

human Cav1.2 [1] = biological target: T1, human Cav1.2 (Homo sapiens, UniProt Q13936); test: QPatch channel biophysics assay (current-voltage relationship, V1/2, tau of inactivation), Cav1.2-HEK293(AUX) cell line; type: cell-based; design: expressed in transfected cells; host or cells: Flp-In 293 T-Rex (HEK293), clone 2-19B, stably transfected with pCMV6-entry-CACNA1C and pcDNA5H/FRT-TO-CACNA2D2-FCS-P2A-CACNB2
T1 sequence (Q13936 whole entry): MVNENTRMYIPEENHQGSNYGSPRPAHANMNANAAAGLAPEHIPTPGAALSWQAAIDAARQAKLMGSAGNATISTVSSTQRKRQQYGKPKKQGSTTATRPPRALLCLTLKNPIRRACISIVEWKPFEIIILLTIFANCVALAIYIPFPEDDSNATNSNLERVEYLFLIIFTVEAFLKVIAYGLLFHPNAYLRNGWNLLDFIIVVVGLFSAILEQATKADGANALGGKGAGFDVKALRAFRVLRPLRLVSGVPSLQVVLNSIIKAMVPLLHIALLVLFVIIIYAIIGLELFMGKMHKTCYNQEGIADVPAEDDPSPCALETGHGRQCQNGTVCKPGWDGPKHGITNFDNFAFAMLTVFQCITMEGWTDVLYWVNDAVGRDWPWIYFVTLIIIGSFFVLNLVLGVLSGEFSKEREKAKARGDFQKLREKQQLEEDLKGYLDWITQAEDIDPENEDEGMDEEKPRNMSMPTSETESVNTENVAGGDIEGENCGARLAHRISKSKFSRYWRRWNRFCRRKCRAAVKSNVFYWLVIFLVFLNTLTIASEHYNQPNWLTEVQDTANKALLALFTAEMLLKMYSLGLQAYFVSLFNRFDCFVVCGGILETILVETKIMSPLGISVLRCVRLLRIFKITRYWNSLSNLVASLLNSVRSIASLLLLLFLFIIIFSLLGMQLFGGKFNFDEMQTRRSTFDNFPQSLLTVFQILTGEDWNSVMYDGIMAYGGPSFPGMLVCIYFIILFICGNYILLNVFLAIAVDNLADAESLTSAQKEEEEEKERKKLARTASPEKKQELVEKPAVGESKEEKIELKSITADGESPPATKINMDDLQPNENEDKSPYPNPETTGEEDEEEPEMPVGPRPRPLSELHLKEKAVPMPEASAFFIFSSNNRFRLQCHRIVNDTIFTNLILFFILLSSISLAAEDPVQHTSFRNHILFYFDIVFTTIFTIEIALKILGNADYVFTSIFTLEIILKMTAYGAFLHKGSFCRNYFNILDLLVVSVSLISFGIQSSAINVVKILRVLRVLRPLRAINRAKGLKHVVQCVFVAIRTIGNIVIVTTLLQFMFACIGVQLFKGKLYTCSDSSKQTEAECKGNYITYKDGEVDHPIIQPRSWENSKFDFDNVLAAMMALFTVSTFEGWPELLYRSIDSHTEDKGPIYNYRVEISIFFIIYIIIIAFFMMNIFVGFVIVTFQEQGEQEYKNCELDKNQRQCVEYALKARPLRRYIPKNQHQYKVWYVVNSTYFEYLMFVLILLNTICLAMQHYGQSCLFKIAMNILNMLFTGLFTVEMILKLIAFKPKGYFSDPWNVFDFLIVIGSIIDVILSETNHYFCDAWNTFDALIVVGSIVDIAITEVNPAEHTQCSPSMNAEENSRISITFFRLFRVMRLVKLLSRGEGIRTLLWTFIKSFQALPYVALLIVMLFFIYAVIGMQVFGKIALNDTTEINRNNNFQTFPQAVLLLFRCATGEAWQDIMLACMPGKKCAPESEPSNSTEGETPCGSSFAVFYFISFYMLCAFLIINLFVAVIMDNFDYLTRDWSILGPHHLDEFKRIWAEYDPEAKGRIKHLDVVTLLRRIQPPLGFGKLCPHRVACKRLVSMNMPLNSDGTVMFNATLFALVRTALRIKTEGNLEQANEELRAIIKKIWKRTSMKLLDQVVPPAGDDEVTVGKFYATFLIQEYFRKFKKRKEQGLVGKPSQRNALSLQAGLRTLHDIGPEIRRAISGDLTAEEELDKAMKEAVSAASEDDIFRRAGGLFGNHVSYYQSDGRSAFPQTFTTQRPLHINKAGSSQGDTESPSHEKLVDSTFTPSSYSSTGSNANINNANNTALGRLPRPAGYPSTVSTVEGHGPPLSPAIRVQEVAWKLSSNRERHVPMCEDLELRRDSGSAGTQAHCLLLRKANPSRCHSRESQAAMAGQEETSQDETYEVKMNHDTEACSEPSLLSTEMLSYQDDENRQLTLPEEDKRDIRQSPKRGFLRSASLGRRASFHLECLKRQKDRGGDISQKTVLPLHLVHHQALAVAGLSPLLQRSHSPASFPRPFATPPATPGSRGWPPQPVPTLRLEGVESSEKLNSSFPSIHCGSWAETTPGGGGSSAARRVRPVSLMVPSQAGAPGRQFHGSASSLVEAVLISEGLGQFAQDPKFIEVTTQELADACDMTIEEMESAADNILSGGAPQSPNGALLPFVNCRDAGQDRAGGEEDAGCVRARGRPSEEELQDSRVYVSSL
T1 sequence (Q9NY47 19-1001 partner limits assumed): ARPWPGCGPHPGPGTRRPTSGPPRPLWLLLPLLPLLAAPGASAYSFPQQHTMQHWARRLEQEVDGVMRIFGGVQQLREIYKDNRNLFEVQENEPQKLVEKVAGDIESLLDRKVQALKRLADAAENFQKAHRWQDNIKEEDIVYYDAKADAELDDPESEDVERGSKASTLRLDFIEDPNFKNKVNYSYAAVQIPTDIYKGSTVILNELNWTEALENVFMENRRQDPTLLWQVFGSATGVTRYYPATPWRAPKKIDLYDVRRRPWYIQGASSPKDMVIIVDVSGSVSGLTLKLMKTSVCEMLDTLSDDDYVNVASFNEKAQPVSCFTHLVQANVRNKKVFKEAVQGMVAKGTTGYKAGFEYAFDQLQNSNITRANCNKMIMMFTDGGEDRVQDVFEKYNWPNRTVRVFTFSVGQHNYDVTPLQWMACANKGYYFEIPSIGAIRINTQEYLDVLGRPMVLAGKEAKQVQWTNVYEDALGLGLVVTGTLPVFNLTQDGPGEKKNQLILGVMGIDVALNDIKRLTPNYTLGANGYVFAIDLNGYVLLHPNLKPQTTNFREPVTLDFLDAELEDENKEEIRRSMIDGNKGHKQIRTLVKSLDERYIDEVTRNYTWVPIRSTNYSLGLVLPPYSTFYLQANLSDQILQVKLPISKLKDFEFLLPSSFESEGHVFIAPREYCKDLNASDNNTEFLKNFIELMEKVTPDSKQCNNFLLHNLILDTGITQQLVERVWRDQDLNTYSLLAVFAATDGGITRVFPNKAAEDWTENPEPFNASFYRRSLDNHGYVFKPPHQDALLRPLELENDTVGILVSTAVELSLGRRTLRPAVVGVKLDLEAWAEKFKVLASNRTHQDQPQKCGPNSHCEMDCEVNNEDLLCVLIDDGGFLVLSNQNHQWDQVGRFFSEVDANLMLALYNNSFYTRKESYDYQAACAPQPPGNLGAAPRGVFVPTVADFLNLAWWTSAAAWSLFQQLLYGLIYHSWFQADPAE
T1 sequence (Q9NY47 1002-1150 partner limits assumed): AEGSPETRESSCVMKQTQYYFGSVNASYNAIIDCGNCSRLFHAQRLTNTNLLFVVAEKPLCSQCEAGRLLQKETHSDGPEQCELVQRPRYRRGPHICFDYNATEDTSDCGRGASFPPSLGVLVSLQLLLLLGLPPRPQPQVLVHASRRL
T1 sequence (Q08289 whole entry partner): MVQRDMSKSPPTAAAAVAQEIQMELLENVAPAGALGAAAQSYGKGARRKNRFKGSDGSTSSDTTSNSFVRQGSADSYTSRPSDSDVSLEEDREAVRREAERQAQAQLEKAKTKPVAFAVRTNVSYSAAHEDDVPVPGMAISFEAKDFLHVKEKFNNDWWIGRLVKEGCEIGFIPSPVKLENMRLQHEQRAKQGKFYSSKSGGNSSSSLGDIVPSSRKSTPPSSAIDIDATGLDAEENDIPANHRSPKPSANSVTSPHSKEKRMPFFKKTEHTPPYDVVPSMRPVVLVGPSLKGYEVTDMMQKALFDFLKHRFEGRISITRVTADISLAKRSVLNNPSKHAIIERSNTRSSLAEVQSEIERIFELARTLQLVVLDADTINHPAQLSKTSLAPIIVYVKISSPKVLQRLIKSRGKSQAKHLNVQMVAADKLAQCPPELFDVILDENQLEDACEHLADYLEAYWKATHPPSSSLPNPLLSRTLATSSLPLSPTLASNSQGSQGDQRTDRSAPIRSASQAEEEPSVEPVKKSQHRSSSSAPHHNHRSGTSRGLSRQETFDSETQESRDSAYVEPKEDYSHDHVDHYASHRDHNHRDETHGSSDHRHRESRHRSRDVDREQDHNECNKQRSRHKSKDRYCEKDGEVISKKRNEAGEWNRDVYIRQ
Experimental: Clonal isolation was achieved under Neomycin selection.
Each experimental run uses 1.5 mL of cells.
The protocol had eight liquid periods. […] The protocol had four liquid periods.

human Cav1.2 [2] = biological target: T1, human Cav1.2; test: Sophion QPatch whole-cell voltage clamp dose-response assay, Cav1.2-HEK293(AUX) cell line (barium currents); conditions: for QPatch Emax: maximal fold change of peak inward current
Experimental: 24 hours prior an electrophysiology experiment, doxycycline (1 μg/ml) was added to the growth medium (Table 1), and 25 μM of verapamil was co-applied to prevent calcium influx triggered cell death. Cell confluency should reach 70%-80% right before the experiment.
To harvest cells (from a T175 cm^2 flask as an example), growth media were removed completely, and the cells were rinsed with 10 mL of D-PBS. D-PBS was aspirated, and 10 mL of Detachin (Genlantis) was added and the plate was placed in a 37° C. incubator for 10 minutes. Detached cells were placed into a 15 mL conical tube and spun at 1000 rpm for 2 minutes. Supernatant was removed, and cells were re-suspended in QPatch complete media (Table 2) to desired cell density of 1.5-3 million cells per QPatch run. Each experimental run uses 1.5 mL of cells.
The cells suspension was taken to the Sophion QPatch platform that uses whole-cell voltage clamp to measure barium currents conducted through Cav1.2 on single-hole QPlates. […] A dose-response assay protocol was used to determine the maximal fold change of peak inward current (Emax) and potency (EC50) of each compound. The protocol had eight liquid periods. The first liquid period was to stabilize current amplitude, which was monitored using repetitive 200-ms voltage pulses stepping from −80 mV to 0 mV. The second liquid period was to determine baseline current amplitude in the presence of vehicle control, using a single 20-ms voltage pulse stepping from −80 mV to 0 mV. The third through eighth liquid periods were used to ascertain a 6-dose response to compound treatments, also using single 20-ms voltage pulses stepping from −80 mV to 0 mV. The EC50 was generated using the following equation Iconcentration=Ibase+(Ifull−Ibase)*c^n/(XC50^n+c^n), where c is the concentration and n is the Hill coefficient constant. Ifull is the maximal current achievable, and Ibase is 0.

[3] = Compound exposure in wild-type mice (cerebellum and blood, mass spectrometry); conditions: male, C57BL/6J, mouse, brain (cerebellum) and whole blood
Experimental: Compound administration and brain tissue collection. Wild-type C57BL/6J male mice were obtained from Jackson laboratories (Bar Harbor, Me.). The acute, single-dose effects of Cav1.2 activators of the present disclosure were evaluated in male eight-week old mice (n=6 mice per compound). Each compound was dissolved in 10% PEG300, 10% Solutol, 10% Cremophore EL, and 70% Phosphate Buffered Saline and administered intraperitoneal (i.p.) at a concentration of 1 mg/kg up to 30 mg/kg depending on the compound. Animals were euthanized one hour after compound administration via exsanguination under deep anesthesia. Blood was collected in EDTA tubes for downstream analysis of drug levels. Brains were rapidly removed from the skull, and the cerebral cortex and cerebellum were regionally dissected. Cerebellar samples were snap frozen in liquid nitrogen to assess compound exposure.
Quantification of compound exposure. Cerebellar tissue samples were homogenized in 4 mL of 20% acetonitrile and 80% Phosphate buffered saline for every 1 g of tissue (5× dilution). Tissue was homogenized using either of the following three methods: hand held probe system, TissueLyser system with 5 mm steel bead at a frequency of 30 s^−1 for 4 min, or OMNI Bead Ruptor Elite homogenizer for 30 seconds to 1 minute depending on tissue type. Tissue samples were added to a 96-well plate (12.5 μL sample) and processed for quantification by mass spectrometry.

[4] = shift of half-way channel activation voltage (V1/2)
[5] = QPatch EC50, 6-point dose response, 20-ms pulses from −80 mV to 0 mV, n = 1 unless marked (* n = 2, # n = 3)
[6] = QPatch EC50, comparative examples, known CaV1.2 activators (Table 6)

Row | Kp at 1 h ([3]; ip) | Kp at 1 h ([3]; intraperitoneal) | SMILES | % ↑cFOS mRNA cortex (3 mg/kg ip) (cFos mRNA) | % ↑cFOS mRNA cortex (10 mg/kg ip) (cFos mRNA) | Biophysics voltage shift (human Cav1.2 [1]; [4]) | EC50 (human Cav1.2 [2]; [5]) | QPatch Emax (human Cav1.2 [2]) | QPatch Emax (human Cav1.2 [2]; comparative examples (Table 6)) | Biophysics voltage shift (human Cav1.2 [1]; comparative examples (Table 6)) | EC50 (human Cav1.2 [2]; [6])
1 | 1.1 |  | COC(=O)C1=C(C)NC2=C(C(=O)OC2)[C@H]1c1cccc(F)c1[C@H]1CC1(F)F (single isomer, unassigned) [Example 1, Methyl (S)-4-(2-((R or S)-2,2-difluorocyclopropyl)-3-fluorophenyl)-2-methyl-5-oxo-1,4,5,7-tetrahydrofuro[3,4-b]pyridine-3-carboxylate] | 169% | 350% | −4.5 mV | 130 nM | 2.0 |  |  | 
2 |  |  | COC(=O)C1=C(C)NC2=C(C(=O)OC2)[C@H]1c1cccc(F)c1C1CCC1 (single isomer, unassigned) [Example 3] |  |  | −6.6 mV | 80 nM | 1.8 |  |  | 
3 | 1.2 |  | COC(=O)C1=C(C)NC2=C(C(=O)OC2)[C@H]1c1cccc(F)c1C1CC1 (single isomer, unassigned) [Example 4] | 247% | 398% | −4.5 mV | 110 nM | 2.1 |  |  | 
4 |  |  | COC(=O)C1=C(C)NC2=C(C(=O)OC2)[C@H]1c1cc(F)cc(F)c1[C@H]1CC1(F)F (single isomer, unassigned) [Example 5, Methyl (S)-4-(2-((R or S)-2,2-difluorocyclopropyl)-3,5-difluorophenyl)-2-methyl-5-oxo-1,4,5,7-tetrahydrofuro[3,4-b]pyridine-3-carboxylate] |  |  | −7.2 mV | 53 nM | 2.5 |  |  | 
5 |  |  | COC(=O)C1=C(C)NC2=C(C(=O)OC2)[C@H]1c1cc(F)cc(F)c1[C@H]1CC1(F)F (single isomer, unassigned) [Example 6, Methyl (S)-4-(2-((R or S)-2,2-difluorocyclopropyl)-3,5-difluorophenyl)-2-methyl-5-oxo-1,4,5,7-tetrahydrofuro[3,4-b]pyridine-3-carboxylate] |  |  | −4.8 mV | 81 nM | 2.6 |  |  | 
6 | 1.7 |  | COC(=O)C1=C(C)NC2=C(C(=O)OC2)[C@H]1c1cc(F)cc(F)c1[C@@H](C)F (single isomer, unassigned) [Example 7, Methyl (S)-4-(3,5-difluoro-2-((S or R)-1-fluoroethyl)phenyl)-2-methyl-5-oxo-1,4,5,7-tetrahydrofuro[3,4-b]pyridine-3-carboxylate] | 158% |  | −6.6 mV | 30 nM | 1.7 |  |  | 
7 |  |  | COC(=O)C1=C(C)NC2=C(C(=O)OC2)[C@H]1c1cccc(F)c1C(C)(C)F (single isomer, unassigned) [Example 8] |  |  |  | 218 nM | 1.6 |  |  | 
8 | 2.3 |  | COC(=O)C1=C(C)NC2=C(C(=O)OC2)[C@H]1c1cccc(F)c1CC(F)(F)F (single isomer, unassigned) [Example 9] | 112% |  | −6.6 mV | 130 nM | 1.5 |  |  | 
9 | 0.9 |  | COC(=O)C1=C(C)NC2=C(C(=O)OC2)[C@H]1c1cccc(F)c1[C@H](C)F (single isomer, unassigned) [Example 10, Methyl (S)-4-(3-fluoro-2-((S or R)-1-fluoroethyl)phenyl)-2-methyl-5-oxo-1,4,5,7-tetrahydrofuro[3,4-b]pyridine-3-carboxylate] | 204% |  |  | 40 nM | 2.2 |  |  | 
10 |  |  | COC(=O)C1=C(C)NC2=C(C(=O)OC2)[C@H]1c1cccc(F)c1[C@@H](F)CF (single isomer, unassigned) [Example 11, Methyl (S)-4-(2-((R or S)-1,2-difluoroethyl)-3-fluorophenyl)-2-methyl-5-oxo-1,4,5,7-tetrahydrofuro[3,4-b]pyridine-3-carboxylate] |  |  | −6.8 mV | 40 nM | 1.4 |  |  | 
11 | 0.8 |  | CCc1c(F)cc(F)cc1[C@H]1C(C(=O)OC)=C(C)NC2=C1C(=O)OC2 (single isomer, unassigned) [Example 12] | 128% |  | −7.4 mV | 110 nM | 1.4 |  |  | 
12 | 1 |  | CCc1c(F)cccc1[C@H]1C(C(=O)OC)=C(C)NC2=C1C(=O)OC2 (single isomer, unassigned) [Example 13] | 165% | 281% | −4.8 mV | 220 nM | 1.5 |  |  | 
13 | 1.7 |  | COC(=O)C1=C(C)NC2=C(C(=O)OC2)[C@H]1c1cc(F)cc(F)c1C1CC1 (single isomer, unassigned) [Example 14] | 228% | 364% | −1.9 mV | 65 nM | 1.8 |  |  | 
14 | 1.3 |  | COC(=O)C1=C(C)NC2=C(C(=O)OC2)[C@H]1c1cccc(F)c1C(C)C (single isomer, unassigned) [Example 15] | 169% |  | −6.6 mV | 50 nM | 2 |  |  | 
15 |  |  | COC(=O)C1=C(C)NC2=C(C(=O)OC2)[C@H]1c1cc(F)cc(F)c1C(C)C (single isomer, unassigned) [Example 18] |  |  | −6.5 mV | 102 nM | 2.2 |  |  | 
16 |  |  | COC(=O)C1=C(C)NC2=C(C(=O)OC2)[C@H]1c1cccc(F)c1C1CC(F)C1 (single isomer, unassigned) [Example 20] |  |  | −6.1 mV | 86 nM | 1.6 |  |  | 
17 |  |  | COC(=O)C1=C(C)NC(C)=C([N+](=O)[O-])[C@H]1c1ccccc1C(F)(F)F (single isomer, unassigned) [reference compound] |  |  |  |  |  | 3.9 |  | 
18 |  |  | CCOC(=O)C1=C(C)NC2=C(C(=O)OC2)[C@H]1c1ccccc1OCc1ccccc1 (single isomer, unassigned) [reference compound] |  |  |  |  |  | 4.3 | −15.4 mV | 450 nM
19 |  | 0.23 | CCOC(=O)C1=C(C)NC2=C(C(=O)OC2)[C@H]1c1ccccc1OC(F)F (single isomer, unassigned) [reference compound] |  |  |  |  |  | 2.2 | −6.7 mV | 280 nM
20 |  |  | COC(=O)C1=C(C)NC2=C(C(=O)OC2)C1c1ccccc1C (single isomer, unassigned) [reference compound] |  |  |  |  |  | 1.4 |  | 2240 nM
21 |  |  | COC(=O)C1=C(C)NC2=C(C(=O)OC2)C1c1ccccc1C(F)(F)F (single isomer, unassigned) [reference compound] |  |  |  |  |  | 1.4 | −4.3 mV | 360 nM
22 |  |  | COC(=O)C1=C(C)NC2=C(C(=O)OC2)C1c1ccccc1OC(F)F (single isomer, unassigned) [reference compound] |  |  |  |  |  | 1.7 | −7.1 mV | 510 nM
23 |  |  | CCOC(=O)C1=C(C)NC2=C(C(=O)OC2)C1c1ccccc1C(F)(F)F (single isomer, unassigned) [reference compound] |  |  |  |  |  | 1.9 |  | 930 nM
24 |  |  | COC(=O)C1=C(C)NC2=C(C(=O)OC2)[C@H]1c1cccc(F)c1CC(F)F [Example 17, (S)-methyl 4-(2-(2,2-difluoroethyl)-3-fluorophenyl)-2-methyl-5-oxo-1,4,5,7-tetrahydrofuro[3,4-b]pyridine-3-carboxylate] |  |  | −6.6 mV | 271 nM | 1.8 |  |  | 

From patent publication US11453679B2, “Methyl 2-methyl-5-oxo-1,4,5,7-tetradhydrofuro[3,4-b]pyridine-3-carboxylate compounds as Cav1.2 activators” (Novartis AG, priority 2020, dated 2022)
